# Measurements as given in patent US7148204B2, “Antisense modulation of bcl-x expression” (Isis Pharmaceuticala, Inc., priority 1998, dated 2006).
# Legend:
# [1] = system: CEM-C7 cells; assay: Viable cell counts of CEM cells (propidium iodide exclusion, flow cytometry); format: cell-based, human; conditions: for viability by propidium iodide exclusion: 20 μM electroporation
# Procedure: CEM-C7 cells (Norman et al., 1978), a glucocortocoid sensitive clone of the human T-lymphoblastic cell line CEM, were cultured between 5×10^4 to 10^6 cells/ml in RPMI 1640 medium containing 10% heat-inactivated fetal bovine serum (FBS), streptomycin, penicillin G, 15 mM HEPES, 2 mM sodium pyruvate, at 37° C. in a humid, 5% CO2 incubator. Viable cell counts were performed by propidium iodide staining and flow cytometry.
# CEM-C7 cells were electroporated with the indicated concentrations of oligonucleotides at 150 volts, 1,700 microFaraday (μF), and a resistance setting of 5 with a BTX electroporation apparatus (Genetronics, San Diego, Calif.) in 2-mm gap cuvettes containing 5×10^6 cells in 200 μl RPMI plus 20% FBS on ice. Cells were left on ice for 10 minutes, then plated in 5 ml complete media.
# [2] = system: CEM cells; assay: Combination index (median-effect) of bcl-x antisense with chemotherapeutic drugs in CEM cells; format: cell-based, human
# Description: To determine if synergy existed between the bcl-x and the chemotherapeutic drugs dexamethasone or doxorubicin, the median-effect principle of Chou (“The median-effect principle and the combination index for quantification of synergism and antagonism. In Synergism and Antagonism in Chemotherapy, T.-C. Chou and D. Rideout, eds., Academic Press, New York, pp. 61–102) was used to determine dose-effect parameters for the drugs individually and for the combinations of bcl-x antisense plus dexamethasone or bcl-x antisense plus doxorubicin. This method analyzes the shape of the drug dose-response curves for each drug, combination of drugs and quantitates synergism/antagonism at different concentrations. Median effect computer software (CalcuSyn for Windows, Biosoft, Ferguson, Mo.) was used to generate the combination index (CI), where a CI value of <1, =1, >1 indicates synergism (i.e., the effect of drug combination is greater than anticipated from the additive effect of the individual agents), additive effect, and antagonism, respectively.
# Treatment of CEM cells with bcl-x antisense oligonucleotide makes the cells more sensitive to killing by doxorubicin or dexamethasone (FIGS. 9A–B). These, or similar drugs, are used frequently for acute lymphocytic leukemia treatment. The use of any of these therapeutic agents in combination with one or more antisense oligonucleotides to bcl-x is within the scope of the present invention. For these experiments, the CEM cells were electroporated with either the bcl-x antisense or control oligonucleotides, cultured for one day, then treated with the indicated concentrations of drug. […] A CI of <0.3 is classified as a strong degree of synergism, and 0.3 to 0.7 is classified as synergism. […] For the doses tested of doxorubicin, the CI ranged from 0.7 to 1.3.
sequence,measurement,setting,value
"TCCCGGTTGCTCTGAGACAT (5-10-5 2'-MOE gapmer, phosphorothioate, further chemistry not given here) [ISIS 15999]",viability by propidium iodide exclusion,"[1]; CEM cells, 48 hours",33%
same,viability by propidium iodide exclusion,"[1]; CEM cells, 72 hours",46%
same,cell count less than control antisense treated cells,"[1]; CEM cells, highest concentration, 20 hours after electroporation",40%
same,viability of CEM cells,[1]; twenty hours after electroporation,dose dependent decrease
same,combination index (CI),"[2]; with dexamethasone, three highest doses",< 0.3
same,combination index (CI),"[2]; with dexamethasone, two lower doses",0.3 to 0.4
same,combination index (CI),"[2]; with doxorubicin, doses tested",0.7 to 1.3
